Measured values taken from US9024069B2, “NONOate derivatives and uses thereof” (Ironwood Pharmaceuticals, priority 2012, dated 2015).

Assays:
[1] = Nitric oxide (NOx) level after oral dosing in male rats, Nitrate/Nitrite Colorimetric Assay; format: in vivo, rat; details: male SD rats, oral gavage; Fenofibrate 24.8 mg/kg, compounds 6, 7, 8 at 32, 34, 33.8 mg/kg; FIG. 2
Experimental: 15 male SD (Sprague Dawley) rats were allowed to acclimate for at least 3 days. Fenofibrate, compounds 6, 7, and 8 were administered via oral gavage at molar equivalent doses of 24.8, 32, 34, 33.8 mg/kg, respectively. Animals were fasted overnight and had their food replaced 4 hours after dosing. Compounds were formulated in 300 μL of 100% PEG400. Animals were euthanized under CO2 at the 24 hr time point. Plasma samples were taken for analytical determination of fenofibric acid from compounds in vacutainers containing sodium fluoride. Serum samples were taken for nitric oxide level determination in BD serum collection tubes.
Fenofibric acid was extracted from the plasma using an acetonitrile protein precipitation method. Samples were run on a Waters Aquity TQD LC-MS/MS and analyzed using the MassLynx software. Nitric Oxide levels were measured in serum using a Nitrate/Nitrite Colorimetric Assay Kit from Caymen Chemicals.

rat aortic ring = experiment: Thoracic aortic rings assay (vasorelaxation of phenylephrine-contracted rings); format: ex vivo tissue; details: rat thoracic aortic rings contracted with 100 ng/mL phenylephrine; cumulative dosing; FIG. 3
Experimental: Thoracic aortic rings were dissected from anesthetized (isoflurane) male Sprague-Dawley rats weighing 275-299 g. Tissues were immediately transferred to ice-cold Krebs-Henseleit solution, which had been aerated with 95% O2 and 5% CO2 for 30 minutes. Following removal of connective tissue, aortic sections were cut into 4 rings (˜2 mm each) and suspended on 2 L-shaped hooks, with one hook fixed at the bottom of the tissue bath (Schuler Organ Bath, Harvard Apparatus) and the other connected to a force transducer (F30 Force Transducer, Harvard Apparatus). Baths contained Krebs Henseleit solution (10 mL) heated to 37° C. and aerated with 95% O2 and 5% CO2. Rings were brought to an initial tension of 0.3-0.5 g and gradually raised to a resting tension of 1.0 g over 60 minutes. Rings were rinsed with Krebs Henseleit solution (heated to 37° C. and aerated with 95% 02 and 5% CO2) at 15 minute intervals until a stable baseline was obtained. Rings were considered to be stable after a resting tension of 1.0 g was maintained (for approximately 10 minutes) without need for adjustment. Rings were then contracted with 100 ng/mL phenylephrine by adding 100 uL of a 10 μg/mL phenylephrine stock solution. Tissues achieving a stable contraction were then treated in a cumulative, dose dependent manner with test compounds prepared in dimethylsulfoxide (DMSO). In some cases, tissues were rinsed three times over a 5 minute period with Krebs-Heinseleit's solution (heated to 37° C. and aerated with 95% O2 and 5% CO2), allowed to stabilize at baseline, and then used for characterization of other test articles or DMSO effects. All data were collected using the HSE-ACAD software provided by Harvard Apparatus. Percent relaxation effects were calculated in Microsoft Excel using the recorded tension value of 100 ng/mL phenylephrine treatment as 0% inhibition and treatment with 100 μM 3-isobutyl-1-methylxanthine as 100% inhibition. EC50 values were calculated from concentration-response curves generated with GraphPad Prism Software. […]

normotensive rats = experiment: Rat normotensive blood pressure model; format: in vivo; details: normotensive conscious SD rats, single oral dose 30 mg/kg, 6 hours monitoring; FIG. 6
Text: 36 male SD rats were allowed to acclimate for at least 3 days. After conditioning the rats were arterially cannulated and assigned to 4 treatment groups, with the goal of achieving n=6/group.
After the acclimation period, the rats were briefly anesthetized with inhaled isoflurane and implanted a small bore femoral artery cannula to permit CV monitoring under conscious unrestrained conditions as conducted in prior studies. 18 rats were cannulated per day on 2 consecutive days and allowed 2 days of post-operative recovery prior to CV testing. 12 rats per day were monitored for each of 2 consecutive daily test sessions.
On the morning of the test sessions, the rats were placed in individual bell jars and their femoral artery cannulas were attached to pressure transducers. CV monitoring consisted of continuously recording mean arterial pressure (MAP) and spot checking heart rate (HR; every 5 to 7 minutes) prior to and for 6 hours after a single oral treatment as in previous studies.
Also on the morning of testing, 4 oral treatments in 500 μl of 100% PEG 400 were formulated. The rats were allowed about 1 hour of equilibration prior to dosing. Once suitably equilibrated, each rat was dosed with an oral vehicle or a drug, delivered by standard gavage. The CV recording was continued over the 6-hour post-treatment interval, occasional small flushes of heparinized saline (˜0.1 mL; 20 units/mL) were administered into their arterial catheters in order to maintain recording fidelity.
At the conclusion of the 6-hour CV monitoring interval, a terminal ˜0.6 mL arterial blood sample was taken and the serum or plasma was processed.

L-NAME hypertensive rats = experiment: Rat L-NAME induced hypertension blood pressure model; format: in vivo; details: oral gavage, 6 hours monitoring, compound 8 at 10, 30, 60 mg/kg, Fenofibrate 49.6 mg/kg, FIGS. 7 and 8
Experimental: L-NAME induced hypertension model was carried out at Pharmoptima. Based on the rats' projected average daily water intake, the NO synthase inhibitor L-NAME, L-NG-nitroarginine methyl ester, which induces hypertension, were dissolved in their drinking water so that the rats self-administered tested compounds for 2 weeks prior to study at the targeted daily L-NAME dosage. The rats' L-NAME/water solution was reformulated every other day to insure potency.
After 2 weeks of oral L-NAME preconditioning, the rats were anesthetized with inhaled isoflurane (3-4% in oxygen) and implanted a small bore femoral artery catheter to permit cardiovascular (CV) monitoring under conscious unrestrained conditions. A total of 36 rats (18 rats/day on two consecutive days) were prepared. The catheters were sealed with sodium heparin to maintain patency.
Allow 2 days of post-operative recovery prior to study, allowing full access to food and water (containing dissolved L-NAME) water.
On the study treatment day, […] (n=6×5 treatments) were set up in bell jars under routine non-fasted conditions. Start recording mean arterial pressure (MAP) and heart rate (HR) from this first set of cannulated rats as per previous studies conducted by PharmOptima. Once stable, the rats were dosed by oral gavage. CV data were recorded from the rats over the ensuing 6 hours. 3 arterial blood samples were taken per rat and the harvested plasma samples were frozen.

[2] = test system: high fat, high cholesterol diet rats; experiment: Rat high fat, high cholesterol diet model (VAP lipid analysis); format: in vivo; details: HFHC diet rats, once daily p.o. for seven days, compound 8 at 3, 10, 30 mg/kg, Fenofibrate at 2.2, 7.3, 22 mg/kg; for very low-density lipoprotein (VLDL) cholesterol: FIG. 4; for HDL: FIG. 5
Experimental: Compounds were tested for effects on cholesterol and lipid profiles in a rat high fat diet model for example as described in Ghibaudi et al. (2002) Obes Res 10:956-63, Ricci and Levin (2003) Am J Physiol Regul Integr Comp Physiol 285:R610-8, and Gao et al. (2002) 936:87-90. Alternatively, animals were fed either a normal diet or a chow supplemented with added fat and/or cholesterol as described in Krause et al (1994) Pharm Res VoI 29, No. 4, Nishina (1993) J of Lipid Res vol 43. and Gajda et al. (2007) Animal Lab News. Based on the specific chows used in these reports, animals were fed a diet consisting of 40% fat, 1% cholesterol, and 0.5% cholic acid (catalog #D01061201, Research Diets, New Brunswick, N.J. 08901).
After at least a week on this diet, animals (6-8/group) are dosed once daily perorally with 500 uL test compounds in PEG 400. Groups are dosed for at least one week before whole blood samples are taken for analysis. Blood serum is analyzed using Vertical Auto Profile (VAP; Atherotech, Inc., Birmingham, Ala.) analysis similar to as described in Kulkarni (2006) Clin Lab Med 26:787-802.
Fenofibrate (Sigma—Cat# F6020-5G, Lot#017K1401) was tested in this assay at 2.2, 7.3 and 22 mg/kg which were equimolar equivalents (for the fenofibric acid moiety) of Compound 8 dosed at 3, 10 and 30 mg/kg. In these experiments animals (n=6 per group) were fed a high fat high cholesterol chow (HFHC; 40% fat, 1% cholesterol, 0.5% cholic acid) diet for one week before test compound administration. Animals received either vehicle only (PEG 400) or test compound (compound 8 at 3, 10 or 30 mg/kg or fenofibrate at 2.2, 7.3 or 22 mg/kg) for seven days before whole blood samples were taken for analysis.

Structure (SMILES) | nitric oxide levels in the plasma upon dosing [1] | vasorelaxant properties (rat aortic ring) | blood pressure (normotensive rats) | blood pressure (L-NAME hypertensive rats) | very low-density lipoprotein (VLDL) cholesterol [2] | HDL [2]
CN(CCO)/[N+]([O-])=N/OCOC(=O)C(C)(C)Oc1ccc(C(=O)c2ccc(Cl)cc2)cc1 [Compound 6, (Z)-1-((2-(4-(4-chlorobenzoyl)phenoxy)-2-methylpropanoyloxy)methoxy)-3-(2-hydroxyethyl)-3-methyltriaz-1-ene 2-oxide] | robust increase in nitric oxide levels | potent vasorelaxant properties in the nM range | lowering blood pressure |  |  | 
CC(C)(Oc1ccc(C(=O)c2ccc(Cl)cc2)cc1)C(=O)OCO/N=[N+](\[O-])N1CCC[C@H]1CO [Compound 8, (S,Z)-2-((2-(4-(4-chlorobenzoyl)phenoxy)-2-methylpropanoyloxy)methoxy)-1-(2-(hydroxymethyl)pyrrolidin-1-yl)diazene oxide] | robust increase in nitric oxide levels | potent vasorelaxant properties in the nM range | lowering blood pressure | lowered blood pressure in an L-NAME model of hypertension in a dose responsive manner | decreases in very low-density lipoprotein (VLDL) cholesterol | dose related increases in HDL
O=[N+]([O-])O[C@H]1CO[C@H]2[C@@H]1OC[C@H]2O[N+](=O)[O-] [ISDN, isosorbide dinitrate, reference compound] |  | active in this assay as a vasorelaxant in the micromolar range |  | moderate blood pressure lowering effect |  | 

Second part, led by results:

nitric oxide levels in the plasma upon dosing [1] | Structure (SMILES) | vasorelaxant properties (rat aortic ring) | blood pressure (normotensive rats) | blood pressure (L-NAME hypertensive rats) | very low-density lipoprotein (VLDL) cholesterol [2] | HDL [2]
robust increase in nitric oxide levels | CN(CCCCO)/[N+]([O-])=N/OCOC(=O)C(C)(C)Oc1ccc(C(=O)c2ccc(Cl)cc2)cc1 [Compound 7, (Z)-1-((2-(4-(4-chlorobenzoyl)phenoxy)-2-methylpropanoyloxy)methoxy)-3-(4-hydroxybutyl)-3-methyltriaz-1-ene 2-oxide] |  | lowering blood pressure |  |  | 
no increase in nitric oxide | CC(C)OC(=O)C(C)(C)Oc1ccc(C(=O)c2ccc(Cl)cc2)cc1 [Fenofibrate, 2-[4-(4-chlorobenzoyl)phenoxy]-2-methyl-propanoic acid, 1-methylethyl ester, reference compound] |  |  | did not lower blood pressure | decreases in VLDL | increases in HDL
